Measurements published in patent publication US20040127492A1 (Pharmacia Corporation, priority 2002, published 2004).
Like-named read-outs stand apart in the source and are kept apart here.

Tests used:
[1] = biological target: MK-3 (Homo sapiens, UniProt Q16644); assay: MK-3 inhibition IC50 (similar method to MK-2, with appropriate modifications); format: biochemical
Experimental: In practice, the selectivity of a cyclic pyrazole MK-2 inhibitor varies depending upon the condition under which the test is performed and on the inhibitors being tested. However, for the purposes of this specification, the selectivity of a cyclic pyrazole MK-2 inhibitor inhibitor can be measured as a ratio of the in vitro or in vivo IC50 value for inhibition of MK-3, divided by the IC50 value for inhibition of MK-2 (IC50 MK-3/IC50 MK-2). […] The MK-2 or MK-3 inhibiting activity of any of the compounds described herein can be determined by any one of several methods that are well known to those having skill in the art of enzyme activity testing. […] A similar method, with appropriate modifications, Can be used to measure MK-3 inhibitory activity. In addition, the efficacy of one of the present MK-2 inhibiting compounds in therapeutic applications can be determined by testing for inhibition of TNFα production in cell culture and in animal model assays.

[2] = biological target: MAPKAPK2 (MK-2) (Homo sapiens, UniProt P49137); assay: Determination of MK-2 IC50 (HSP-peptide phosphorylation, anion exchange resin capture assay); format: biochemical
Experimental: Determination of MK-2 IC50:
Recombinant MAPKAPK2 was phosphorylated at a concentration of 42-78 μM by incubation with 0.23 μM of active p38α in 50 mM HEPES, 0.1 mM EDTA, 10 mM magnesium acetate, and 0.25 mM ATP, pH 7.5 for one hour at 30° C.
The phosphorylation of HSP-peptide ([…]) by MAPKAPK2 was measured using an anion exchange resin capture assay method. The reaction was carried out in 50 mM β-glycerolphosphate, 0.04% BSA, 10 mM magnesium acetate, 2% DMSO and 0.8 mM dithiotheritol, pH 7.5 in the presence of the HSP-peptide with 0.2 μCi [γ^33P]ATP and 0.03 mM ATP. The reaction was initiated by the addition of 15 nM MAPKAPK2 and was allowed to incubate at 30° C. for 30 min. The reaction was terminated and [γ^33P]ATP was removed from solution by the addition of 150 μl of AG 1×8 ion exchange resin in 900 mM sodium formate pH 3.0. A 50 μl aliquot of head volume was removed from the quenched reaction mixture and added to a 96-well plate, 150 μl of Microscint-40 (Packard) was added and the amount of phosphorylated-peptide was determined. Allow the Microscint to sit in the plates for 60 minutes prior to counting.
Compounds are evaluated as potential inhibitors of the MK-2 kinase by measuring their effects on MK-2 phosphorylation of the peptide substrate. Compounds may be screened initially at two concentrations prior to determination of IC50 values. Screening results are expressed as percent inhibition at the concentrations of compound tested. For IC50 value determinations, Compounds are tested at six concentrations in ten-fold serial dilutions with each concentration tested in triplicate. Results are expressed as IC50 values in micromolar. The assay is performed at a final concentration of 2% DMSO.

[3] = Table 2, pyrazolylpyrazole MK-2 inhibitors, read-out: MK-3 Avg. IC50
[4] = Table 2, pyrazolylpyrazole MK-2 inhibitors, read-out: MK-2 Avg. IC50
[5] = Table 1, phenoxypyrazole MK-2 inhibitors, read-out: MK-3 Avg. IC50
[6] = Table 1, phenoxypyrazole MK-2 inhibitors, read-out: MK-2 Avg, IC50
[7] = Table 4, pyrimidylpyrazole MK-2 inhibitors, read-out: NK-3 Avg. IC50
[8] = Table 4, pyrimidylpyrazole MK-2 inhibitors, read-out: MK-2 Avg. IC50
[9] = Table 5, other cyclic pyrazole MK-2 inhibiting compounds, read-out: MK-3 Avg. IC50
[10] = Table 5, other cyclic pyrazole MK-2 inhibiting compounds, read-out: MK-2 Avg. IC50

Chain of MK-3 (Q16644 whole entry, species assumed): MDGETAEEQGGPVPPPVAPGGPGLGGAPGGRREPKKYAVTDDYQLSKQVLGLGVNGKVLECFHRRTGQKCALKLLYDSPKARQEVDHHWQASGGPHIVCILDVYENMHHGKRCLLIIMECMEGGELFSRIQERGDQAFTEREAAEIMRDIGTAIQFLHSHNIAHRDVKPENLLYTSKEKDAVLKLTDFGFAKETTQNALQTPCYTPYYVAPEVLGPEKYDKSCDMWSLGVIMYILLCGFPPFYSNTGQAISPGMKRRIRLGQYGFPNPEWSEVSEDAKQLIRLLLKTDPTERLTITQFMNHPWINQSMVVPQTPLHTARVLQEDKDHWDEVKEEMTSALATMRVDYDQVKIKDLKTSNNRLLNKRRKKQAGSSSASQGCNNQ
Chain of MAPKAPK2 (MK-2) (P49137 whole entry, species assumed): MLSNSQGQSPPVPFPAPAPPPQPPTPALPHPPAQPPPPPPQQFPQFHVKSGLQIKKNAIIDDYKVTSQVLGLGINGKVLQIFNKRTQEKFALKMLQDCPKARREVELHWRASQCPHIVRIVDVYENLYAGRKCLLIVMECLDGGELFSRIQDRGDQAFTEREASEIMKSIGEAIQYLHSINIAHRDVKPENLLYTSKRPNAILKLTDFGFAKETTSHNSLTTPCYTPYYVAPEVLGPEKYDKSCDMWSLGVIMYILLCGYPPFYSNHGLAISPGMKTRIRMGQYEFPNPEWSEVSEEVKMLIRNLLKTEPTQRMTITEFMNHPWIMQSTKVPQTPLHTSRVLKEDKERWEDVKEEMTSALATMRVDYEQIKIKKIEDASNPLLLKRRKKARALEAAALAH

**Q.** `CSc1n[nH]c2c1-c1nn(CCCN)c(C(=O)O)c1CC2` [Example 1] was tested. Which IC50 [1, 3] did it give?
**A.** 47 µM

**Q.** What about the IC50 [2, 4] of the same compound?
**A.** 1060 nM

**Q.** How did the IC50 [1, 5] turn out when `NCCCn1nc2c(c1C(=O)O)CCc1cc(O)c(-c3cccc([N+](=O)[O-])c3)cc1-2` [Example 1] was run?
**A.** 115 µM

**Q.** And the IC50 [2, 6]?
**A.** 823 nM

**Q.** How did the IC50 ([1]; read-out: MK-3 Avg. IC50) turn out when `NCCCn1nc2c(c1C(=O)O)CCc1cnc(-c3cnc4ccccc4c3)cc1-2` [Example 1] was run?
**A.** 0.0354 µM

**Q.** What about the IC50 ([2]; read-out: MK-2 Avg. IC50) of the same compound?
**A.** 9.46 nM

**Q.** With `NCCCn1nc2c(c1C(=O)O)CCc1cnc(-c3cnc4ccccc4c3)nc1-2` [Example 1] as the compound, how does the IC50 [1, 7] read?
**A.** 1.93 µM

**Q.** And the IC50 [2, 8]?
**A.** 76.1 nM

**Q.** Which IC50 [1, 9] does the source give for `O=C1NCCn2nc3c(c21)CCc1cnc(/C=C/c2cccc(O)c2)cc1-3` [Example 1] here?
**A.** 3.62 µM

**Q.** What about the IC50 [2, 10] of the same compound?
**A.** 21.1 nM

**Q.** Which IC50 [1, 3] does the source give for `NCCCn1nc2c(c1C(=O)O)CCc1[nH]ncc1-2` [Example 2] here?
**A.** 35.3 µM

**Q.** And the IC50 [2, 4]?
**A.** 2170 nM

**Q.** What does the source list for `NCCCn1nc2c(c1C(=O)O)CCc1cnc(-c3ccc4c(c3)OCO4)nc1-2` [Example 2]?
**A.** IC50 [1, 7]: 4.61 µM; IC50 [2, 8]: 295 nM

**Q.** How did the IC50 ([1]; read-out: MK-3 Avg. IC50) turn out when `NCCCn1nc2c(c1C(=O)O)CCc1cnc(-c3cccc([N+](=O)[O-])c3)cc1-2` [Example 2] was run?
**A.** 0.142 µM

**Q.** And the IC50 ([2]; read-out: MK-2 Avg. IC50)?
**A.** 18 nM

**Q.** Which results are given for `NCCn1nc2c(c1C(=O)O)CCc1cc(O)c(-c3cccc([N+](=O)[O-])c3)cc1-2` [Example 2]?
**A.** IC50 [1, 5]: 40.9 µM; IC50 [2, 6]: 845 nM

**Q.** Which IC50 ([1]; read-out: MK-3 Avg. IC50) does the source give for `NCCCn1nc2c(c1C(=O)O)CCc1cnc(-c3ccc(O)cc3)cc1-2` [Example 3] here?
**A.** 0.361 µM

**Q.** And the IC50 ([2]; read-out: MK-2 Avg. IC50)?
**A.** 18.9 nM

**Q.** For `NCCCn1nc2c(c1C(=O)O)CCc1cnc(-c3ccccc3)nc1-2` [Example 3], which IC50 [1, 7] is on record?
**A.** 10.8 µM

**Q.** And the IC50 [2, 8]?
**A.** 406 nM

**Q.** With `O=C(O)c1c2c(nn1CCCNCCc1ccc(Br)cc1)-c1cn[nH]c1CC2` [Example 3] as the compound, how does the IC50 [1, 3] read?
**A.** 20.8 µM

**Q.** And the IC50 [2, 4]?
**A.** 2230 nM

**Q.** Which results are given for `O=C1NCCCn2nc3c(c21)CCc1cc(O)c(-c2cccc([N+](=O)[O-])c2)cc1-3` [Example 3]?
**A.** IC50 [1, 5]: > 200 µM; IC50 [2, 6]: 1480 nM

**Q.** Which IC50 [1, 5] does the source give for `NCCCn1nc2c(c1C(=O)O)CCc1cc(O)ccc1-2` [Example 4] here?
**A.** 37.9 µM

**Q.** And the IC50 [2, 6]?
**A.** 2090 nM

**Q.** For `NCCCn1nc2c(c1C(=O)O)CCc1cnc(-c3cccc(O)c3)cc1-2` [Example 4], which IC50 ([1]; read-out: MK-3 Avg. IC50) is on record?
**A.** 0.55 µM

**Q.** And the IC50 ([2]; read-out: MK-2 Avg. IC50)?
**A.** 19.4 nM

**Q.** What does the source list for `NCCn1nc2c(c1C(=O)O)CCc1[nH]ncc1-2` [Example 4]?
**A.** IC50 [1, 3]: 63.3 µM; IC50 [2, 4]: 2430 nM

**Q.** Which IC50 [1, 9] does the source give for `O=C1NCCn2nc3c(c21)CCc1cnc(/C=C/c2ccc4c(c2)OCO4)cc1-3` [Example 4] here?
**A.** > 20 µM

**Q.** What about the IC50 [2, 10] of the same compound?
**A.** 223 nM

**Q.** What does the source list for `C=CCSc1n[nH]c2c1-c1nn(CCCN)c(C(=O)O)c1CC2` [Example 5]?
**A.** IC50 [1, 3]: 41.4 µM; IC50 [2, 4]: 2840 nM

**Q.** Which results are given for `COc1cccc(/C=C/c2cc3c(cn2)CCc2c-3nn3c2C(=O)NCC3)c1` [Example 5]?
**A.** IC50 [1, 9]: 11.8 µM; IC50 [2, 10]: 328 nM

**Q.** For `NCCCn1nc2c(c1C(=O)O)CCc1cnc(-c3ccc4ccccc4c3)cc1-2` [Example 5], which IC50 ([1]; read-out: MK-3 Avg. IC50) is on record?
**A.** 0.0698 µM

**Q.** And the IC50 ([2]; read-out: MK-2 Avg. IC50)?
**A.** 23 nM

**Q.** `NCCn1nc2c(c1C(=O)O)CCc1cc(O)c(Br)cc1-2` [Example 5] was tested. Which IC50 [1, 5] did it give?
**A.** > 200 µM

**Q.** What about the IC50 [2, 6] of the same compound?
**A.** 2140 nM

**Q.** What does the source list for `O=C1NCCCn2nc3c(c21)CCc1cnc(-c2cccnc2)nc1-3` [Example 5]?
**A.** IC50 [1, 7]: 168 µM; IC50 [2, 8]: 1580 nM

**Q.** For `NCCCn1nc2c(c1C(=O)O)CCc1[nH]nc(SCc3ccccc3)c1-2` [Example 6], which IC50 [1, 3] is on record?
**A.** 22.1 µM

**Q.** And the IC50 [2, 4]?
**A.** 2890 nM

**Q.** `NCCCn1nc2c(c1C(=O)O)CCc1cc(O)c(CCc3ccc(Cl)cc3)cc1-2` [Example 6] was tested. Which IC50 [1, 5] did it give?
**A.** 38.2 µM

**Q.** And the IC50 [2, 6]?
**A.** 2290 nM

**Q.** With `NCCCn1nc2c(c1C(=O)O)CCc1cnc(-c3cc(F)cc(F)c3)cc1-2` [Example 6] as the compound, how does the IC50 ([1]; read-out: MK-3 Avg. IC50) read?
**A.** 0.135 µM

**Q.** And the IC50 ([2]; read-out: MK-2 Avg. IC50)?
**A.** 28 nM

**Q.** How did the IC50 [1, 7] turn out when `O=C(O)c1c2c(nn1CCCNC(c1ccccc1)(c1ccccc1)c1ccccc1)-c1nc(-c3cnc4ccccc4c3)ncc1CC2` [Example 6] was run?
**A.** 154 µM

**Q.** And the IC50 [2, 8]?
**A.** 2160 nM

**Q.** Which results are given for `O=C1NCCn2nc3c(c21)CCc1cnc(/C=C/c2ccc(Cl)cc2)cc1-3` [Example 6]?
**A.** IC50 [1, 9]: > 20 µM; IC50 [2, 10]: 536 nM

**Q.** For `NCCCn1nc2c(c1C(=O)O)CCc1cnc(-c3ccc4c(c3)OCO4)cc1-2` [Example 7], which IC50 ([1]; read-out: MK-3 Avg. IC50) is on record?
**A.** 0.269 µM

**Q.** What about the IC50 ([2]; read-out: MK-2 Avg. IC50) of the same compound?
**A.** 29.6 nM
